Assay results from US7232559B1, “Diagnostic agents for pancreatic exocrine function” (Tokyo Gas Company Limited, priority 1999, dated 2007).
Several values for one entry are separate records, joined by “and”; a condition that tells them apart may be missing. Identical values can stand only once. Each block holds one compound with its values, some of them ahead of it. Primed or numbered codes have the meaning given here. 13C‑Gly = glycine labeled with carbon-13 (13C); Bz′ = not defined here

Key:
[1] = system: chronic pancreatitis rats and control (normal) rats; experiment: ^13C-breath test (Δ^13C in exhaled CO2 after oral administration); format: in vivo, rat; details: for Δ^13C (‰) (mean) value at 15 minutes after the administration: 420 mg/kg oral; for Δ^13C (‰) value at 30 minutes after the administration (group mean): 30 mg/kg oral
Procedure: (§1) A model of chronic pancreatitis in rats were prepared by injecting oleic acid into the pancreatic duct (Mundlos et al., Pancreas 1:29 (1986)). After overnight fast, a Wistar male rat of 5 weeks old was anesthetized by intraperitoneal administration of Nembutal (50 mg/kg). The abdominal wall was shaved and the rat was fixed supinely on an operating table. An Isodine solution was applied to sterilize, and a 3 to 4 cm midline incision was made on the abdomen. The duodenum and the pancreas were drawn out and a 25 G needle was pierced through the duodenal wall. A polyethylene cannula (PE-10) was inserted through the pierced hole into the duodenum and further inserted into the common bile duct by about 5 mm from the papilla. The inserted cannula was fixed by a microclip. Further, the biliary duct was closed by a microclip in order to prevent oleic acid from flowing into the liver. Oleic acid (50 μl) was injected at a rate of 20 μl/min by a microsyringe pump. After the injection was completed, the rat was allowed to stand for 2 minutes so that the oleic acid was distributed throughout the pancreas. The microclips and cannula were removed and the duodenum was returned. The endothelium was sutured with silk thread (Nescosuture silk suture thread 3-0, Nihon Shoji KK) and the outer skin was sutured with a skin stapler (Appose ULC, No. 8034-12, 5.7×3.8 mm). As a control, only laparotomy was carried out. These rats subjected to the operation were kept under free intake of standard food and water at 23° C., relative humidity of 55% until use.
The rat of 9 weeks old was fixed without anesthesia in a rat holder for a microwave irradiation apparatus. The breath was collected at a rate of about 100 to 300 ml/min using a stroke pump (Variable Stroke Pump VS-500, Shibata Kagaku Kogyo) and introduced directly to a flow cell of a ^13CO2 analyzer EX-130S (Nihon Bunko). A Perma Pure drier (MD-050-12P, Perma Pure INC.) was set between the rat holder and stroke pump to remove out water vapor in the breath. […]
Output data from the ^13CO2 analyzer were AD converted and put into a personal computer (Apple Power Macintosh 8500). Using a data processing soft ware Lab VIEW (National Instruments), 10 data points at every 100 msec were integrated and averaged in an interval of 5 seconds and converted to ^13C atom %, Δ^13C (‰), and CO2 concentration (%) In this manner, the ^13C breath test was continuously carried out. […] CO2 concentration in the collected breath was held at 3±0.5%.
Δ^13C (‰) was calculated from the ^13C concentration in the exhaled CO2 at each time point (^13C tmin) and the ^13C concentration in standard CO2 (^13C std) according to the following equation: Δ^13C (‰)=[(^13C tmin−^13C 0min)/^13C std]×1000

Wistar male rat pancreas = experiment: Model of chronic pancreatitis by oleic acid injection into the pancreatic duct: enzyme contents; format: in vivo
Procedure: as §1, with “use. After injecting oleic acid into the pancreatic duct and being kept for 3 weeks, these rats (oleic acid-injected rats) were subjected to measurement of amylase in the blood, and to quantitative determination of chymotrypsinogen and amylase contents in the pancreas (FIG. 1). An extraction buffer (20 mM HEPPS+Na, pH 8.0, 100 mM KCl, 0.5% (w/v) Triton X-100) was added to the removed pancreas to the total volume of 10 ml. The material was subjected to ultrasonic disruption (Bionic 7250, Seiko, Sonics & Materials) and centrifuged at 10,000×g for 20 minutes to yield a pancreatic extract as a supernatant. […] After the reaction, 10 μl of 100% (W/V) TCA solution was added and centrifuged at 15,000×g for 5 minutes and the PABA in the supernatant was quantitatively determined using a PABA measuring kit (Eisai). The amylase activity in the pancreatic extract was measured using Fuji Dri-Chem. Both units of activity (U) show μ mole release/min.” for “use.”

[2] = target: T1, chymotrypsin (from bovine pancreas) (Bos taurus, UniProt P00766); experiment: Degradation by chymotrypsin (leucine released, ninhydrin reaction); format: biochemical
T1 construct: purchased Worthington Biochemical Corporation #1432, Lot 37A906; host or cells: bovine pancreas (natural source)
Procedure: Bz-DL-Phe-(^13C-Leu) was reacted with chymotrypsin and the degradation product, leucine, generated upon action of chymotrypsin was quantitatively determined by ninhydrin reaction. The reaction was carried out in 20 mM HEPPS-Na (pH 8.0), 23 mM Bz-DL-Phe-(^13C-Leu), 0.16 mg/ml chymotrypsin (from bovine pancreas, Worthington Biochemical Corporation, #1432, Lot 37A906) at 37° C. for 15 minutes. After reaction, 50 μl of citrate buffer (citric acid monohydrate), 20 μl of ninhydrin solution (50 mg/ml solution in methyl cellosolve) and 100 μl of KCN solution (0.01 M aqueous KCN solution diluted 50 times with methyl cellosolve) were added to 100 μl of the reaction mixture and heated at 100° C. for 15 minutes. After cooling the ninhydrin reaction mixture to room temperature, 150 μl of 60% (V/V) ethanol was added to 100 μl of the ninhydrin reaction mixture and stirred followed by determination of an absorbance at a wave length of 570 nm. An experiment wherein all the reactions that were carried out without adding Bz-DL-Phe-(^13C-Leu) was taken as a “blank,” and leucine was used as a standard.

[3] = chronic pancreatitis rats #1-#4, 250 mg/kg oral
[4] = chronic pancreatitis rats (n=4), 250 mg/kg oral
[5] = normal rats #1-#4, 250 mg/kg oral
[6] = normal rats (n=4), 250 mg/kg oral
[7] = oleic acid-injected rats (n=17), 50 μl into pancreatic duct, 3 weeks after

Compound: Bz-Tyr-(^13C-Leu)
Δ^13C (‰) at 20 min, individual rat [1, 3]: 8.76 ‰ and 3.58 ‰ and 2.44 ‰ and −0.15 ‰ | Δ^13C (‰) value at 20 minutes after the administration (group mean) [1, 4]: 3.66±3.24 ‰ | Δ^13C (‰) at 20 min, individual rat [1, 5]: 65.76 ‰ and 21.02 ‰ and 80.02 ‰ and 111.32 ‰ | Δ^13C (‰) value at 20 minutes after the administration (group mean) [1, 6]: 69.53±32.50 ‰

Compound: CCCCCCCC/C=C\CCCCCCCC(=O)O [oleic acid]
rats evaluated to have pancreatitis (chymotrypsinogen content below mean−2SD of control) (Wistar male rat pancreas; 12 rats among 17 oleic acid-injected rats): 70% | blood amylase concentration (Wistar male rat pancreas; oleic acid-injected rats (n=17), 3 weeks after): 2137 U | amylase content in the pancreas (Wistar male rat pancreas; [7]): 789 U | chymotrypsinogen content in the pancreas (Wistar male rat pancreas; [7]): 8.1 U

rate of degradation ([2]; 23 mM substrate, 0.16 mg/ml chymotrypsin, 20 mM HEPPS-Na pH 8.0, 37° C., 15 minutes): 1.72 nmole/mg chymotrypsin/min | substrate for chymotrypsin ([2]; same reaction, leucine produced): could be a substrate for chymotrypsin
Compound: Bz-DL-Phe-(^13C-Leu)
time course of Δ^13C (‰) ([1]; 7 cases of the chronic pancreatitis rats (n=8), 250 mg/kg oral): the degree of increase was small and continued to slowly increase for 30 minutes

Compound: Bz-Arg-(^13C-Leu).HCl
Δ^13C (‰) at 20 min, individual rat ([1]; chronic pancreatitis rats #1-#3, 100 mg/kg oral): 3.69 ‰ and 11.25 ‰ and −5.79 ‰ | Δ^13C (‰) value at 20 minutes after the administration (group mean) ([1]; chronic pancreatitis rats (n=3), 100 mg/kg oral): 3.05±6.97 ‰ | Δ^13C (‰) at 20 min, individual rat ([1]; normal rats #1-#3, 100 mg/kg oral): 79.91 ‰ and 51.94 ‰ and 74.46 ‰ | Δ^13C (‰) value at 20 minutes after the administration (group mean) ([1]; normal rats (n=3), 100 mg/kg oral): 68.77±12.01 ‰

Compound: Bz-L-Phe-(^13C-Leu)
Δ^13C (‰) at 10 min, individual rat [1, 3]: 1.61 ‰ and 3.28 ‰ and 17.21 ‰ and 5.77 ‰ | Δ^13C (‰) value at 10 minutes after the administration (group mean) [1, 4]: 6.97±6.09 ‰ | Δ^13C (‰) at 10 min, individual rat [1, 5]: 60.25 ‰ and 165.37 ‰ and 203.16 ‰ and 31.29 ‰ | Δ^13C (‰) value at 10 minutes after the administration (group mean) [1, 6]: 115.02±71.26 ‰

Compound: Bz-Ala-Ala-Ala-Ala-(^13C-Gly)-Phe-Leu ({Bz′}-AAAA-{13C‑Gly-Phe-Leu})
Δ^13C (‰) at 15 min, individual rat ([1]; chronic pancreatitis rats #1-#2, 420 mg/kg oral): −1.90 ‰ and 3.12 ‰ | Δ^13C (‰) (mean) value at 15 minutes after the administration ([1]; chronic pancreatitis rats (n=2)): 0.61 ‰ | Δ^13C (‰) at 15 min, individual rat ([1]; normal rats #1-#2, 420 mg/kg oral): 23.47 ‰ and 43.16 ‰ | Δ^13C (‰) (mean) value at 15 minutes after the administration ([1]; normal rats (n=2)): 33.32 ‰

Compound: Arg-(^13C-Leu)
Δ^13C (‰) at 30 min, individual rat ([1]; chronic pancreatitis rats #1-#4, 30 mg/kg oral): 3.74 ‰ and 6.97 ‰ and 4.87 ‰ and 1.92 ‰ | Δ^13C (‰) value at 30 minutes after the administration (group mean) ([1]; chronic pancreatitis rats (n=4)): 4.37±1.83 ‰ | Δ^13C (‰) at 30 min, individual rat ([1]; normal rats #1-#4, 30 mg/kg oral): 13.74 ‰ and 15.37 ‰ and 10.08 ‰ and 10.30 ‰ | Δ^13C (‰) value at 30 minutes after the administration (group mean) ([1]; normal rats (n=4)): 12.37±2.26 ‰
